Results: ChEMBL document CHEMBL4420076, “Amylin and calcitonin receptor agonist” (2017)
Numbered stars: 1 amine (or outer) side, 2 acyl side, 3 side chain; on linkers, the order of the positions; unused ones are H or OH. Side chains are listed from the residue outwards. Peptide text beside a SMILES is read from it. * marks the point of attachment. C20 diacid = O=C(O)CCCCCCCCCCCCCCCCCCC(=O)*; γGlu = O=C(O)[C@H](CCC(=O)[*:2])N[*:1]

Columns and labels:
[1] = Solubility in 100 mM glycylglycine buffer at pH 5.0 incubated for 18 hrs by UPLC analysis; format: physicochemical
[2] = Solubility in 100 mM bistrispropane buffer at pH 8.0 incubated for 18 hrs by UPLC analysis; format: physicochemical
[3] = target: T1, Amylin receptor AMY3; CALCR/RAMP3 (Homo sapiens, UniProt O60896+P30988); test: Agonist activity at human amylin receptor expressed in BHK570 cells co-expressing RAMP3 assessed as increase in intracellular cAMP concentration incubated for 3 hrs in absence of albumin by CRE luciferase reporter gene assay; format: functional, cell-based
T1 sequence (P30988 whole entry): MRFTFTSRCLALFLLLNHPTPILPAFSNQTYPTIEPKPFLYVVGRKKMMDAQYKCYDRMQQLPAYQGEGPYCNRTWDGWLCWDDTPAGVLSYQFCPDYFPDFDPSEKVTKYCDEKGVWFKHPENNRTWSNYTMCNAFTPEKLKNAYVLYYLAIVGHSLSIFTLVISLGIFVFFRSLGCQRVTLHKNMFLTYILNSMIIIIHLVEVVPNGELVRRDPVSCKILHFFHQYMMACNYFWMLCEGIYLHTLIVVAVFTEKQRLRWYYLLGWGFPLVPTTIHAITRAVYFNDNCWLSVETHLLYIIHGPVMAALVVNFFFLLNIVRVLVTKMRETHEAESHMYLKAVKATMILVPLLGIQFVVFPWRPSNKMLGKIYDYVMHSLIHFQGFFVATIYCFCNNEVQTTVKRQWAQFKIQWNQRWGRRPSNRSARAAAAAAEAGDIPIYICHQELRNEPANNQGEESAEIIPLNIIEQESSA
T1 sequence (O60896 whole entry): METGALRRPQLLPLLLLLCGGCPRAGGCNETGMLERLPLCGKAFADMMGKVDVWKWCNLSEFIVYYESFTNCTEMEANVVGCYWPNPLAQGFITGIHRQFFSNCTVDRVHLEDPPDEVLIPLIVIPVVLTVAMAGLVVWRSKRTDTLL

[4] = target: T2, Calcitonin receptor (Homo sapiens, UniProt P30988); test: Agonist activity at human calcitonin receptor expressed in BHK570 cells assessed as increase in intracellular cAMP concentration incubated for 3 hrs in presence of 10% FBS by CRE luciferase reporter gene assay; format: functional, cell-based
T2 sequence (P30988 whole entry): T1 sequence (P30988 whole entry)

[5] = target: T2, Calcitonin receptor; test: Agonist activity at human calcitonin receptor expressed in BHK570 cells assessed as increase in intracellular cAMP concentration incubated for 3 hrs in absence of albumin by CRE luciferase reporter gene assay; format: functional, cell-based
[6] = Stability in pH 7.5 buffer assessed as compound recovery at 1 uM by Thioflavin T based fluorescence assay; format: physicochemical; conditions: read-out: Drug recovery
[7] = Solubility in 100 mM bistrispropane buffer at pH 7.5 incubated for 18 hrs by UPLC analysis; format: physicochemical
[8] = Solubility in 100 mM bistrispropane buffer at pH 6.5 incubated for 18 hrs by UPLC analysis; format: physicochemical
[9] = Solubility in 100 mM bistrispropane buffer at pH 7.0 incubated for 18 hrs by UPLC analysis; format: physicochemical
[10] = Stability in pH 7.5 buffer assessed as lag time for fibril formation at 1 uM by Thioflavin T based fluorescence assay; format: physicochemical; conditions: pH 7.5, 1 µM
[11] = target: T3, Amylin receptor AMY3; CALCR/RAMP3 (Rattus norvegicus, UniProt P32214+Q9JJ73); test: Displacement of [125I]-labeled rat amylin from rat amylin receptor expressed in BHK tkts13 cell membranes co-expressing RAMP3 incubated for 120 mins by scintillation proximity assay
T3 sequence (P32214 whole entry): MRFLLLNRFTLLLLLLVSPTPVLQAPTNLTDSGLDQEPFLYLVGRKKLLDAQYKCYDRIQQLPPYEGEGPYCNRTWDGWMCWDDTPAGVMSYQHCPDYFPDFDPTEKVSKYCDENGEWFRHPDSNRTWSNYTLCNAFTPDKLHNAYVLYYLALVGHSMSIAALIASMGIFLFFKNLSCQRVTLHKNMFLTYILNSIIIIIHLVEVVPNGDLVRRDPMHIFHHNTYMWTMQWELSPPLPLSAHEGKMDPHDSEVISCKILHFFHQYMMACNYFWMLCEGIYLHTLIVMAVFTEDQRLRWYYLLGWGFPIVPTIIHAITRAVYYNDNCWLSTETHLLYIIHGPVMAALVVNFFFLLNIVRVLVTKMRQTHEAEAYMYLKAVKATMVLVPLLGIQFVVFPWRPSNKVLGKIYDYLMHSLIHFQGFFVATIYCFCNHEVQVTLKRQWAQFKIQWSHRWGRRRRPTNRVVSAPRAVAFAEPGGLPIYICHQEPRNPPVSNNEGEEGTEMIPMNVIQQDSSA
T3 sequence (Q9JJ73 whole entry): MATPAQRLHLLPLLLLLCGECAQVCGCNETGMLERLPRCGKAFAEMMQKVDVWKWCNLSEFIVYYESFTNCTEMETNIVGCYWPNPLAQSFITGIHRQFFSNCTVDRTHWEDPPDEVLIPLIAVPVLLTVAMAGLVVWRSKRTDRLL

[12] = Solubility in 100 mM bistrispropane buffer at pH 6.0 incubated for 18 hrs by UPLC analysis; format: physicochemical
[13] = Solubility in 100 mM glycylglycine buffer at pH 4.0 incubated for 18 hrs by UPLC analysis; format: physicochemical
[14] = target: T1, Amylin receptor AMY3; CALCR/RAMP3; test: Agonist activity at human amylin receptor expressed in BHK570 cells co-expressing RAMP3 assessed as increase in intracellular cAMP concentration incubated for 3 hrs in presence of 10% FBS by CRE luciferase reporter gene assay; format: functional, cell-based
[15] = Solubility in 100 mM glycylglycine buffer at pH 3.0 incubated for 18 hrs by UPLC analysis; format: physicochemical
[16] = tested on: Rattus norvegicus; test: Reduction in food intake in Sprague-Dawley rat at 3 nmol/kg measured 0 to 24 hrs post dose relative to control; format: functional; design: scale not given: the % may be the effect or the level left
[17] = tested on: Rattus norvegicus; test: Reduction in food intake in Sprague-Dawley rat at 3 nmol/kg measured 24 to 48 hrs post dose relative to control; format: functional; design: scale not given: the % may be the effect or the level left

SMILES | solubility at 18 h [1] [µM] | solubility at 18 h [2] [µM] | EC50 [3] [nM] | EC50 [4] [nM] | EC50 [5] [nM] | remaining at 1 µM [6] [%] | solubility at 18 h [7] [µM] | solubility at 18 h [8] [µM] | solubility at 18 h [9] [µM] | Time [10] [h] | IC50 [11] [nM] | solubility at 18 h [12] [µM] | solubility at 18 h [13] [µM] | EC50 [14] [nM] | solubility at 18 h [15] [µM] | Activity [16] [%] | Activity [17] [%]
CC(C)C[C@H](NC(=O)[C@H](C)NC(=O)[C@H](C)NC(=O)[C@@H](NC(=O)[C@H](CO)NC(=O)[C@H](CC(C)C)NC(=O)[C@H](CCC(=O)O)NC(=O)[C@H](CO)NC(=O)[C@H](C)N)[C@@H](C)O)C(=O)NCC(=O)N[C@@H](CCCNC(=N)N)C(=O)N[C@@H](CC(C)C)C(=O)N[C@@H](CO)C(=O)N[C@@H](C)C(=O)N[C@@H](CCCCNC(=O)CC[C@H](NC(=O)CCCCCCCCCCCCCCCCCCC(=O)O)C(=O)O)C(=O)N[C@@H](CC(C)C)C(=O)N[C@@H](Cc1cnc[nH]1)C(=O)N[C@@H](CCC(=O)O)C(=O)N[C@@H](CC(C)C)C(=O)N[C@@H](C)C(=O)N[C@H](C(=O)N[C@@H](CC(C)C)C(=O)N1CCC[C@H]1C(=O)N[C@@H](CCCNC(=N)N)C(=O)N[C@H](C(=O)N[C@@H](CCC(=O)O)C(=O)N[C@H](C(=O)NCC(=O)N[C@@H](CO)C(=O)NCC(=O)N[C@@H](CO)C(=O)N1CCC[C@H]1C(N)=O)[C@@H](C)O)[C@@H](C)O)[C@@H](C)O (H-ASELSTAALGRLSAK([γGlu-C20 diacid])LHELATLPRTETGSGSP-NH2) | ≥ 200 | ≥ 200 | 0.022 | 0.048 | 0.031 | 100 | ≥ 200 | ≥ 200 | ≥ 200 | > 45 | 1.3 | ≥ 200 | ≥ 200 | 0.057 | ≥ 200 | – | –
CC(C)C[C@H](NC(=O)[C@H](C)NC(=O)[C@H](C)NC(=O)[C@@H](NC(=O)[C@H](CO)NC(=O)[C@H](CC(C)C)NC(=O)[C@H](CCC(=O)O)NC(=O)[C@H](CO)NC(=O)[C@H](C)NC(=O)CC[C@H](NC(=O)CCCCCCCCCCCCCCCCCCC(=O)O)C(=O)O)[C@@H](C)O)C(=O)NCC(=O)N[C@@H](CCCNC(=N)N)C(=O)N[C@@H](CC(C)C)C(=O)N[C@@H](CO)C(=O)N[C@@H](C)C(=O)N[C@@H](CCC(=O)O)C(=O)N[C@@H](CC(C)C)C(=O)N[C@@H](Cc1cnc[nH]1)C(=O)N[C@@H](CCC(=O)O)C(=O)N[C@@H](CC(C)C)C(=O)N[C@@H](C)C(=O)N[C@H](C(=O)N[C@@H](CC(C)C)C(=O)N1CCC[C@H]1C(=O)N[C@@H](CCCNC(=N)N)C(=O)N[C@H](C(=O)N[C@@H](CCC(=O)O)C(=O)N[C@H](C(=O)NCC(=O)N[C@@H](CO)C(=O)NCC(=O)N[C@@H](CO)C(=O)N1CCC[C@H]1C(N)=O)[C@@H](C)O)[C@@H](C)O)[C@@H](C)O ({C20 diacid-γGlu}-ASELSTAALGRLSAELHELATLPRTETGSGSP-NH2) | ≥ 200 | ≥ 200 | 0.013 | 0.029 | 0.014 | 100 | ≥ 200 | ≥ 200 | ≥ 200 | > 45 | – | ≥ 200 | ≥ 200 | 0.051 | ≥ 200 | 49 | 79
CC(C)C[C@H](NC(=O)CNC(=O)[C@H](CO)NC(=O)[C@H](C)NC(=O)CC[C@H](NC(=O)CCCCCCCCCCCCCCCCCCC(=O)O)C(=O)O)C(=O)N[C@@H](CO)C(=O)N[C@H](C(=O)N[C@@H](C)C(=O)N[C@H](C(=O)N[C@@H](CC(C)C)C(=O)NCC(=O)N[C@@H](CCCNC(=N)N)C(=O)N[C@@H](CC(C)C)C(=O)N[C@@H](CO)C(=O)N[C@@H](C)C(=O)N[C@@H](CCC(=O)O)C(=O)N[C@@H](CC(C)C)C(=O)N[C@@H](Cc1cnc[nH]1)C(=O)N[C@@H](CCC(=O)O)C(=O)N[C@@H](CC(C)C)C(=O)N[C@@H](C)C(=O)N[C@H](C(=O)N[C@@H](Cc1ccc(O)cc1)C(=O)N1CCC[C@H]1C(=O)N[C@@H](CCCNC(=N)N)C(=O)N[C@H](C(=O)N[C@@H](CCC(=O)O)C(=O)N[C@H](C(=O)NCC(=O)N[C@@H](CO)C(=O)NCC(=O)N[C@H](C(=O)N1CCC[C@H]1C(N)=O)[C@@H](C)O)[C@@H](C)O)[C@@H](C)O)[C@@H](C)O)C(C)C)[C@@H](C)O ({C20 diacid-γGlu}-ASGLSTAVLGRLSAELHELATYPRTETGSGTP-NH2) | ≥ 200 | ≥ 200 | 0.047 | 0.035 | 0.028 | 100 | ≥ 200 | ≥ 200 | ≥ 200 | > 45 | – | ≥ 200 | ≥ 200 | 0.066 | ≥ 200 | 52 | 57
CC(C)C[C@H](NC(=O)CNC(=O)[C@H](CO)NC(=O)[C@H](C)NC(=O)CC[C@H](NC(=O)CCCCCCCCCCCCCCCCCCC(=O)O)C(=O)O)C(=O)N[C@@H](CO)C(=O)N[C@H](C(=O)N[C@@H](C)C(=O)N[C@H](C(=O)N[C@@H](CC(C)C)C(=O)NCC(=O)N[C@@H](CCCNC(=N)N)C(=O)N[C@@H](CC(C)C)C(=O)N[C@@H](CO)C(=O)N[C@@H](CCC(N)=O)C(=O)N[C@@H](CCC(=O)O)C(=O)N[C@@H](CC(C)C)C(=O)N[C@@H](Cc1cnc[nH]1)C(=O)N[C@@H](CCC(=O)O)C(=O)N[C@@H](CC(C)C)C(=O)N[C@@H](CCC(N)=O)C(=O)N[C@H](C(=O)N[C@@H](Cc1ccc(O)cc1)C(=O)N1CCC[C@H]1C(=O)N1CCC[C@H]1C(=O)N[C@H](C(=O)N[C@@H](CCC(=O)O)C(=O)N[C@H](C(=O)NCC(=O)N[C@@H](CO)C(=O)N[C@@H](CCC(N)=O)C(=O)N[C@H](C(=O)N[C@@H](Cc1ccc(O)cc1)C(N)=O)[C@@H](C)O)[C@@H](C)O)[C@@H](C)O)[C@@H](C)O)C(C)C)[C@@H](C)O ({C20 diacid-γGlu}-ASGLSTAVLGRLSQELHELQTYPPTETGSQTY-NH2) | ≥ 200 | ≥ 200 | – | 0.072 | 0.057 | 100 | ≥ 200 | ≥ 200 | ≥ 200 | > 45 | – | ≥ 200 | – | 0.152 | ≥ 200 | 9 | 5
